From patent US20170087106A1, “Method for supporting gut health” (priority 2015, published 2017)

What was measured:
Assay type in all cases: in vivo
iNOS = assay: TNBS rat colitis: colonic iNOS mRNA by real-time PCR; conditions: colon, oral daily 7 days, mean ± SEM
Experimental: (§1) Female Wistar rats (180-200 g) were randomly assigned to nine groups (n=10). Three groups received treatment with CaPyr (20, 40 and 100 mg/kg); other three received treatment with ethyl pyruvate (20, 40 and 100 mg/kg); and the remaining was treated with sulphasalazine (30 mg/kg). All compounds were dissolved in 1 ml of carboxymethylcellulose (0.2%) in water solution, and administered daily by oral gavage. An untreated TNBS control group and a non-colitic group were included for reference, which received the vehicle used to administer the test compounds. Colonic inflammation was induced in control and treated groups as generally described (see Galvez et al. 2014). Briefly, rats were fasted overnight, anesthetized with halothane and given TNBS dissolved in 0.25 ml of 50% ethanol (v/v) by means of a Teflon cannula inserted 8 cm through the anus. During and after TNBS administration, the rats were kept in a head-down position until they recovered from anaesthesia, and then returned to their cages. Rats from the non-colitic group were administered intracolonically 0.25 ml of phosphate buffered saline instead of TNBS. The treatments were given from the day of the colitis induction until the sacrifice of the rats with an overdose of halothane, seven days later. Animal body weights, occurrence of diarrhoea, and water and food intake were recorded daily throughout all the experiments. Once the animals were sacrificed, the colon was removed aseptically and placed on an ice-cold plate, longitudinally opened and cleaned from their luminal contents with cold saline. Afterwards, it was weighed and its length measured under a constant load (2 g). Each colon was scored for macroscopically visible damage on a 0-10 scale by two observers unaware of the experiment, according to the criteria described before (see Galvez et al. 2014). Colon samples (0.5 cm^2) containing all the layers were taken from a region of the inflamed colon corresponding to the adjacent segment to the gross macroscopic damage and were fixed in 4% buffered formaldehyde for the histological studies. Equivalent colonic segments were also obtained from the non-colitic group. The colon was subsequently minced, aliquoted and kept frozen at −80° C. until biochemical determinations and RNA extraction was performed.
(§2) Analysis of gene expression in colonic samples by RT-qPCR Total RNA from colonic samples was isolated using Trizol® (Thermo Fisher Scientific Inc., Waltham, Mass. USA) following the manufacturer's protocol. All RNA samples were quantified with the Thermo Scientific NanoDrop™ 2000 Spectrophotometer (Thermo Fisher Scientific Inc., Waltham, Mass. USA) and […] of RNA were reverse transcribed using oligo(dT) primers (Promega, Southampton, UK).
(§3) Real time quantitative PCR amplification and detection was performed on optical-grade 48 well plates in an Eco™ Real-Time PCR System (Illumina, CA, USA) with 20 ng of cDNA, the KAPA SYBR® FAST qPCR Master Mix (Illumina, CA, USA) and specific primers at their annealing temperature (Ta). To normalize mRNA expression, the expression of the housekeeping gene, glyceraldehyde-3-phosphate dehydrogenase (GAPDH) was measured. The mRNA relative quantitation was calculated using the ΔΔCt method.

MUC-2 = assay: TNBS rat colitis: colonic MUC-2 mRNA by real-time PCR; conditions: colon, oral daily 7 days, mean ± SEM
Experimental: as §1, §2, §3

ICAM-1 = assay: TNBS rat colitis: colonic ICAM-1 mRNA by real-time PCR; conditions: colon, oral daily 7 days, mean ± SEM
Experimental: as §1, §2, §3

IL-23 = assay: TNBS rat colitis: colonic IL-23 mRNA by real-time PCR; conditions: colon, oral daily 7 days, mean ± SEM
Experimental: as §1, §2, §3

IL-1β [1] = assay: TNBS rat colitis: colonic IL-1β by ELISA; conditions: colonic tissue, oral daily 7 days, mean ± SEM
Experimental: as §1
(§4) Myeloperoxidase (MPO) activity was measured according to the technique described previously (Krawiszet al., 1984); the results were expressed as MPO units per gram of wet tissue; one unit of MPO activity was defined as that degrading 1 μmol hydrogen peroxide/min at 25° C. Total glutathione (GSH) content was quantified with the recycling assay described by Anderson (1985), and the results were expressed as nmol/g wet tissue. In order to evaluate tissue IL-1β levels, the colonic samples were homogenized in phosphate buffered saline supplemented with 0.1% sodium dodecyl sulfate (SDS), 0.1% sodium deoxycholate, 1% Triton X-100 and protease and phosphatase inhibitors (aprotinin, leupeptin and phenylmethylsulfonyl fluoride). The cytokine was quantified by enzyme-linked immunoabsorbent assay (R&D Systems Inc., Minneapolis, Minn., USA) and the results were expressed as pg/g wet tissue.

IL-17 = assay: TNBS rat colitis: colonic IL-17 mRNA by real-time PCR; conditions: colon, oral daily 7 days, mean ± SEM
Experimental: as §1, §2, §3

[2] = system: TNBS experimental rat colitis; assay: TNBS rat colitis: colonic macroscopic damage score and weight/length ratio; conditions: for Damage Score (0-10) / Weight/length: TNBS rat colitis, oral daily 7 days, mean ± SEM; for Weight/length: colon
Experimental: as §1

glutathione (GSH) = assay: TNBS rat colitis: colonic total glutathione (GSH) content; conditions: colonic tissue, oral daily 7 days, mean ± SEM
Experimental: as §1, §4

myeloperoxidase (MPO) = assay: TNBS rat colitis: colonic myeloperoxidase (MPO) activity; conditions: colonic tissue, oral daily 7 days, mean ± SEM
Experimental: as §1, §4

IL-12 = assay: TNBS rat colitis: colonic IL-12 mRNA by real-time PCR; conditions: colon, oral daily 7 days, mean ± SEM
Experimental: as §1, §2, §3

CINC-1 = assay: TNBS rat colitis: colonic CINC-1 mRNA by real-time PCR; conditions: colon, oral daily 7 days, mean ± SEM
Experimental: as §1, §2, §3

IL-1β [3] = assay: TNBS rat colitis: colonic IL-1β mRNA by real-time PCR; conditions: colon, oral daily 7 days, mean ± SEM
Experimental: as §1, §2, §3

IL-6 = assay: TNBS rat colitis: colonic IL-6 mRNA by real-time PCR; conditions: colon, oral daily 7 days, mean ± SEM
Experimental: as §1, §2, §3

TFF-3 = assay: TNBS rat colitis: colonic TFF-3 mRNA by real-time PCR; conditions: colon, oral daily 7 days, mean ± SEM
Experimental: as §1, §2, §3

[4] = system: TNBS experimental rat colitis; assay: TNBS rat colitis: microscopic (histological) damage score; conditions: oral daily 7 days, mean ± SEM
Experimental: as §1
Cross-sections were selected and embedded in paraffin. Full-thickness sections of 5 μm were obtained at different levels and stained with haematoxylin and eosin. The histological damage was evaluated by a pathologist observer, who was blinded to the experimental groups, according to the criteria previously described by Galvez.

MCP-1 = assay: TNBS rat colitis: colonic MCP-1 mRNA by real-time PCR; conditions: colon, oral daily 7 days, mean ± SEM
Experimental: as §1, §2, §3

CCOC(=O)C(C)=O [EtPyr, ethyl pyruvate]
iNOS mRNA expression (iNOS; 20 mg/kg): 16.17 ± 2.75 fold increase
iNOS mRNA expression (iNOS; 40 mg/kg): 12.20 ± 1.53 fold increase
iNOS mRNA expression (iNOS; 100 mg/kg): 22.88 ± 2.14 fold increase
MUC-2 mRNA expression (MUC-2; 20 mg/kg): 0.39 ± 0.09 fold increase
MUC-2 mRNA expression (MUC-2; 40 mg/kg): 0.70 ± 0.08 fold increase
MUC-2 mRNA expression (MUC-2; 100 mg/kg): 0.50 ± 0.11 fold increase
ICAM-1 mRNA expression (ICAM-1; 20 mg/kg): 1.39 ± 0.19 fold increase
ICAM-1 mRNA expression (ICAM-1; 40 mg/kg): 2.27 ± 0.38 fold increase
ICAM-1 mRNA expression (ICAM-1; 100 mg/kg): 2.39 ± 0.50 fold increase
IL-23 mRNA expression (IL-23; 20 mg/kg): 1.68 ± 0.39 fold increase
IL-23 mRNA expression (IL-23; 40 mg/kg): 1.56 ± 0.27 fold increase
IL-23 mRNA expression (IL-23; 100 mg/kg): 1.80 ± 0.21 fold increase
IL-1β (ELISA) (IL-1β [1]; 20 mg/kg): 975.0 ± 90.1 ng/g tissue
IL-1β (ELISA) (IL-1β [1]; 40 mg/kg): 1140.0 ± 150.1 ng/g tissue
IL-1β (ELISA) (IL-1β [1]; 100 mg/kg): 975.0 ± 211.7 ng/g tissue
IL-17 mRNA expression (IL-17; 20 mg/kg): 1.17 ± 0.27 fold increase
IL-17 mRNA expression (IL-17; 40 mg/kg): 1.74 ± 0.33 fold increase
IL-17 mRNA expression (IL-17; 100 mg/kg): 2.34 ± 0.30 fold increase
Damage Score (0-10) ([2]; 20 mg/kg): 6.6 ± 0.6
Damage Score (0-10) ([2]; 40 mg/kg): 6.1 ± 0.4
Damage Score (0-10) ([2]; 100 mg/kg): 6.0 ± 0.5
Weight/length ([2]; 20 mg/kg): 185.4 ± 31.1 mg/cm
Weight/length ([2]; 40 mg/kg): 172.0 ± 15.8 mg/cm
Weight/length ([2]; 100 mg/kg): 186.4 ± 13.2 mg/cm
effect in TNBS-induced colitis (in words) ([2]; rats, 20, 40 and 100 mg/kg body weight, 7 days oral treatment): intestinal anti-inflammatory effects
GSH (glutathione (GSH); 20 mg/kg): 560 ± 74 nmol/g tissue
GSH (glutathione (GSH); 40 mg/kg): 715 ± 88 nmol/g tissue
GSH (glutathione (GSH); 100 mg/kg): 870 ± 124 nmol/g tissue
MPO (myeloperoxidase (MPO); 20 mg/kg): 58.1 ± 11.9 mU/g tissue
MPO (myeloperoxidase (MPO); 40 mg/kg): 61.5 ± 9.8 mU/g tissue
MPO (myeloperoxidase (MPO); 100 mg/kg): 54.7 ± 10.8 mU/g tissue
IL-12 mRNA expression (IL-12; 20 mg/kg): 1.09 ± 0.13 fold increase
IL-12 mRNA expression (IL-12; 40 mg/kg): 1.81 ± 0.48 fold increase
IL-12 mRNA expression (IL-12; 100 mg/kg): 1.62 ± 0.37 fold increase
CINC-1 mRNA expression (CINC-1; 20 mg/kg): 4.40 ± 0.65 fold increase
CINC-1 mRNA expression (CINC-1; 40 mg/kg): 4.40 ± 0.57 fold increase
CINC-1 mRNA expression (CINC-1; 100 mg/kg): 4.40 ± 0.90 fold increase
IL-1β mRNA expression (IL-1β [3]; 20 mg/kg): 6.90 ± 1.50 fold increase
IL-1β mRNA expression (IL-1β [3]; 40 mg/kg): 7.20 ± 1.20 fold increase
IL-1β mRNA expression (IL-1β [3]; 100 mg/kg): 10.21 ± 1.50 fold increase
IL-6 mRNA expression (IL-6; 20 mg/kg): 5.60 ± 1.41 fold increase
IL-6 mRNA expression (IL-6; 40 mg/kg): 5.60 ± 1.20 fold increase
IL-6 mRNA expression (IL-6; 100 mg/kg): 6.00 ± 1.01 fold increase
TFF-3 mRNA expression (TFF-3; 20 mg/kg): 0.59 ± 0.16 fold increase
TFF-3 mRNA expression (TFF-3; 40 mg/kg): 1.01 ± 0.05 fold increase
TFF-3 mRNA expression (TFF-3; 100 mg/kg): 0.96 ± 0.11 fold increase
Microscopic Damage Score (0-59) ([4]; 20 mg/kg): 25 ± 3
Microscopic Damage Score (0-59) ([4]; 40 mg/kg): 17 ± 3
Microscopic Damage Score (0-59) ([4]; 100 mg/kg): 23 ± 3
MCP-1 mRNA expression (MCP-1; 20 mg/kg): 1.23 ± 0.37 fold increase
MCP-1 mRNA expression (MCP-1; 40 mg/kg): 1.85 ± 0.29 fold increase
MCP-1 mRNA expression (MCP-1; 100 mg/kg): 2.21 ± 0.29 fold increase
